Experiments:
Format in all cases: cell-based, human
[1] = system: KSHV-infected DMVEC; assay: Morpholino treatment and focus inhibition assay (Example 5); conditions: for Foci/spindle morpholigical inhibition: PMO-treated KSHV-infected DMVEC vs control PMO, repeated three times; for effect on phenotype (foci, spindle shape) in focus-inhibition assay (in words): PMO-AS, KSHV-infected DMVEC, 5-10 days
Procedure: Morpholino Treatment and Focus Inhibition Assay. Phosphorodiamidate morpholino antisense oligonucleotides (PMO-AS) were designed and synthesized by Gene Tools LLC (Philomath, Oreg.) as a Special Delivery formulation, which pairs the morpholino with a partially complementary DNA oligo. A weakly basic delivery agent, Ethoxylated Polyethlyenimine (EPEI) is then used to deliver the anionic morpholino/DNA duplex into the cytosol. PMO-AS were received as sterile, lyophilized solids ([…]) that were solubilized in sterile water to obtain 0.5 mM stock solutions. To load a 35 mm dish of DMVEC at 90% confluence, 5 microl of stock solution was mixed with 5 microl of EPEI delivery solution in 590 μl H20 for 20 minutes at room temperature, and then mixed with 1.5 ml of serum-free RPMI medium. Endothelial growth media was removed from DMVEC, and replaced with the PMO-AS:EPEI:RPMI delivery solution for 3 hours in a 37° C. incubator. After incubation, cells were rinsed, complete endothelial growth medium was added and cells were cultured for up to 10 days without sub-culture, with media replacement every 48-72 hours. This protocol allows for the characteristic post-confluent growth and development of multi-layered spindle-cell aggregates (foci) in KSHV-infected cultures. Cells were monitored daily under the phase microscope to evaluate PMO-AS-inhibition of the development of these foci. At the conclusion of an assay, cells were fixed in 2% paraformaldehyde and stained with a MAB against CD31 (Dako; 1:100) followed by a goat-anti-mouse FITC second conjugate. Junctional staining of cells with CD31 accentuated the disorganized multi-layered nature of the spindle cell aggregates as composed to the flat, organized profile of contact-inhibited cells.
For these assays, KSHV-infected DMVEC monolayers were cultured to 90% confluence and then loaded with each PMO-AS, or maintained as unloaded controls. Cultures were observed daily until control cultures had developed prominent multi-layered aggregates of spindle cells. Typically this took 5-10 days with some variation between replicate experiments. Each experiment was performed at least three times and was performed with mock-infected as well as KSHV-infected DMVEC. As expected, mock-infected DMVEC maintained a quiescent monolayer at confluence, and PMO-AS treatment of uninfected cells occurred without any adverse effect. This observation allowed verification that none of the gene knockdown treatments induced non-specific toxicity in DMVEC. The majority of tested PMO-AS had no effect on the ability of KSHV-infected DMVEC to grow post-confluence and form disorganized, multi-layered foci (TABLE 2).

[2] = system: DMVEC; assay: Uptake, distribution and persistence of FITC-labeled PMO antisense; conditions: 3 hours after loading, FITC-labeled PMO with EPEI
From the text: Introduction of antisense PMO into KSHV-infected DMVEC. Antisense PMO molecules, for delivery purposes, are typically converted to a paired duplex together with a partially complementary cDNA oligonucleotide in the weakly basic delivery reagent ethoxylated polyethylenimine (EPEI) (Summerton, supra). The anionic complex binds to the cell surface, is taken up by endocytosis and eventually released into the cytosol. A protocol for optimum uptake of antisense PMO in immortalized DMVEC was developed using a modification of the EPEI method. Briefly, uninfected, immortalized DMVECs were incubated for 3 hours at 37° C. with 0.6 nmol/well FITC-PMO complexed with EPEI according to the manufacturer's instructions (GeneTools, LLC, One Summerton Way, Philomath, Oreg. 97370) (e.g., 1.25 nMol oligomer with 2.5 μl EPEI reagent per 35 mm dish, allowing for sufficient antisense uptake without non-specific EPEI-induced toxicity). The PMOs were labeled with FITC to allow for monitoring of loading efficiency by fluorescence microscopy.
Cellular distribution of introduced FITC-labeled PMO antisense molecules. […]
Therefore, the introduced PMO antisense oligomers were determined to be stable over substantial time periods in DMVEC. […] Moreover, the PMO oligomers were readily taken up by DMVEC and distributed within the cytosol.

[3] = system: KSHV-infected DMVEC; assay: XTT assay of PMO-AS effect on post-confluent growth (Example 5); conditions: 72 hours
Procedure: XTTAssay. Metabolism of XTT to a water-soluble formazan dye by viable cells gives a quantitative determination of relative cell number. The XTT assay was thus used to quantitatively assess the effect of PMO-AS treatment on KSHV focus formation and post-confluent growth. For these assays, KSHV-infected and uninfected DMVEC were seeded into 96-well flat-bottom Primaria trays at 10^4 cells/well, loaded with PMO-AS after overnight equilibration, and cultured for 72 hrs. For the final 4 hours of culture, 50 μl XTT (Roche Diagnostics, Indianapolis, Ind.) was added to each well and the optical density (OD) of each well was recorded by an ELISA reader between 450 and 500 nm. To verify efficient (>80%) PMO-AS uptake in the 96-well format, cells were treated with a FITC-tagged morpholino (FITC-PMO) and uptake visually assessed under a fluorescence microscope. This FITC-PMO also served as a control for any non-specific effect of the PMO-AS:EPEI complex on DMVEC growth. As a positive control, cells were treated with a c-Kit PMO-AS previously shown to inhibit KSHV-induced transformation (Moses, 2002). For NIH 3T3 cells, the XTT assay was performed in 96-well plates at a cell density of 10^4 cells/well, and OD measured at 48 hours.
In view of the above-described effects of Neuritin- and RDC1-specific PMO-AS in inhibiting focus formation of KSHV-infected DMVEC, a further determination was made to determine whether such inhibition correlated with reduced cellular proliferation. Such reduced cellular proliferation would be expected, because the development of multilayered cell foci requires additional cell growth that would not occur if contact inhibition was maintained. A colorimetric cellular proliferation assay was used to assess cell growth. […] This growth can be accurately assessed by monitoring the metabolism of XTT added to each well by measurement of optical density at […] (e.g., 4 hours post XTT addition). […] To verify efficient (>80%) PMO-AS uptake in the 96-well format, cells were treated with a FITC-tagged PMO-AS (FITC-PMO) and uptake visually assessed under a fluorescence microscope. […]

| Substance | Foci/spindle morpholigical inhibition [1] | cells with FITC-PMO concentrated in intracellular vesicles (endosomes) [2] | effect on cell growth in XTT assay (in words) [3] | effect on phenotype (foci, spindle shape) in focus-inhibition assay (in words) [1] |
| --- | --- | --- | --- | --- |
| KIT: FITC-labeled PMO targeting the start codon of c-Kit, CGCCTCTCATCGCGGTAGCTGCG (SEQ ID NO:21) (all phosphorodiamidate morpholino (PMO); FITC label attached, position not given here) | Full | about 70% | dramatically inhibited cell growth | – |
| Neuritin: PMO antisense to Neuritin, TTAACTCCCATCCTACGTTTAGTCA (SEQ ID NO:19) (all phosphorodiamidate morpholino (PMO); delivered paired with partially complementary DNA oligo (Special Delivery)) | Full | – | dramatically inhibited cell growth | dramatic effect on phenotype |
| RDC-1: PMO antisense to RDC-1, GAAGAGATGCAGATCCATCGTTCTG (SEQ ID NO:15) (all phosphorodiamidate morpholino (PMO); delivered paired with partially complementary DNA oligo (Special Delivery)) | Full | – | dramatically inhibited cell growth | dramatic effect on phenotype |

Reference: patent US20070072209A1, “Methods of treatment and diagnosis of Kaposi's sarcoma (KS) and KS related diseases” (priority 2005, published 2007)
